The source of these data is ChEMBL document CHEMBL1201862, “PubChem BioAssay data set” (2004).

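All cell lines were grown in 96-well plates and treated with compound for 48 hours. GI50 marks 50% less growth.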 Active and inactive are the calls of the source. No stated cut-off is given here; in the data, active = GI50 up to about 1.1 µM and inactive = higher.

What all share (assay): growth of human tumour cells (NCI), 48 h
The test system of experiment [1] is SF-268.
Experiment [2] deals with UACC-62.
Experiment [3] concerns U-251.
In experiment [4] the test system is IGROV-1.
Experiment [5] concerns NCI-H226.
Experiment [6] relates to T47D.
For experiment [7], the system named is NCI-H460.
Experiment [8] deals with HL-60.
The test system of experiment [9] is RPMI-8226.
The subject of experiment [10] is OVCAR-4.
Experiment [11] deals with SNB-75.
The subject of experiment [12] is SF-295.
The subject of experiment [13] is K562.
In experiment [14] the test system is DU-145.
In experiment [15] the test system is UACC-257.
Experiment [16] deals with HOP-62.
Experiment [17] concerns COLO 205.
Experiment [18] concerns OVCAR-8.
Experiment [19] concerns SNB-19.

Take `Cc1ncc([N+](=O)[O-])n1CCNS(=O)(=O)CCCn1ccnc1[N+](=O)[O-]`: the GI50 in [1], in experiment [2], in [3], in experiment [4], in experiment [5] and in experiment [6] was > 100 µM (inactive) each time. In addition, the GI50 in experiment [7], in [8], in experiment [9], in [10], in experiment [11] and in experiment [12] was > 100 µM (inactive) each time. Also, the GI50 in experiment [13], in experiment [14], in experiment [15], in [16], in [17] and in experiment [18] was > 100 µM (inactive) in each case.

Take `C1CSC(Sc2nc(SC3=NCCS3)nc(SC3=NCCS3)n2)=N1`: the GI50 in experiment [1], in experiment [19], in [2], in experiment [3], in experiment [4] and in [5] was > 100 µM (inactive) in each case. The GI50 in [6], in experiment [7], in experiment [8], in experiment [9], in [10] and in [12] was > 100 µM (inactive) in each case. For the same compound, the GI50 in experiment [13], in [14], in [15], in [16], in experiment [17] and in experiment [18] was > 100 µM (inactive) each time.

For the compound `COc1ccc(/C=C2/C(=O)C(c3ccccc3)N(c3ccccc3)C2=O)cc1OC` (stereo unspecified), the GI50 in experiment [1] was > 10 µM (inactive); in experiment [19], > 10 µM (inactive); in experiment [2], > 10 µM (inactive); in experiment [3] it was > 10 µM (inactive); in [4], 0.975 µM (active); in experiment [5], > 10 µM (inactive). The GI50 in [6], in [7], in [8], in experiment [9], in [10] and in experiment [12] was > 10 µM (inactive) throughout. For the same compound, the GI50 in [14], in experiment [15], in experiment [16], in experiment [17] and in experiment [18] was > 10 µM (inactive) each time.

Turning to `COc1cc(C[S+]([O-])c2ccc(O)cc2)cc(OC)c1OC` (stereo unspecified), the GI50 in experiment [1], in [19], in [2], in [3], in experiment [4] and in experiment [5] was > 100 µM (inactive) each time. For the same compound, the GI50 in [6], in experiment [7], in experiment [8], in experiment [9], in experiment [11] and in experiment [12] was > 100 µM (inactive) in each case. The GI50 in experiment [13], in [14], in experiment [15], in [16], in experiment [17] and in [18] was > 100 µM (inactive) throughout.

Regarding `Cc1nc2ccccc2c(=O)n1NC(=O)c1ccccn1`, the GI50 in experiment [1], in experiment [19], in [2], in experiment [3], in experiment [4] and in experiment [6] was > 100 µM (inactive) in each case. The GI50 in experiment [7] is > 100 µM (inactive); in experiment [8], > 100 µM (inactive); in experiment [9], > 100 µM (inactive); in [10], > 100 µM (inactive); in experiment [11], 35.7 µM (inactive); in experiment [12] it was > 100 µM (inactive). In addition, the GI50 in experiment [13], in experiment [14], in experiment [15], in experiment [16], in experiment [17] and in [18] was > 100 µM (inactive) each time.

Consider `COC(=O)C1(C)CCCC2(C)c3cc(OC)ccc3C(=O)C(Br)C12` (stereo unspecified), for which the GI50 in experiment [1], in [19], in experiment [2], in experiment [3], in [4] and in [5] was > 10 µM (inactive) throughout. The GI50 in experiment [6] was > 10 µM (inactive); in experiment [7], > 10 µM (inactive); in experiment [8], 2.14 µM (inactive); in experiment [9], 2.24 µM (inactive); in experiment [12] it was > 10 µM (inactive); in [13] it was 3.68 µM (inactive). Besides, the GI50 in experiment [14] is > 10 µM (inactive); in experiment [15], > 10 µM (inactive); in experiment [16], > 10 µM (inactive); in experiment [17] it was 2.63 µM (inactive); in [18], 1.99 µM (inactive).

As to `CC(C)C1CC(CO)(CNc2cc(Cl)nc(N)n2)C1` (stereo unspecified), the GI50 was 5 µM (inactive) in [1]; > 100 µM (inactive) in [19]; > 100 µM (inactive) in experiment [2]; 44 µM (inactive) in experiment [3]; > 100 µM (inactive) in experiment [4]; 13.5 µM (inactive) in experiment [5]. The GI50 was 0.805 µM (active) in experiment [6]; 30.9 µM (inactive) in [7]; 18.1 µM (inactive) in experiment [8]; 11.8 µM (inactive) in experiment [9]; 20.7 µM (inactive) in experiment [10]; 6.22 µM (inactive) in [12]. The GI50 is 9.57 µM (inactive) in experiment [13]; > 100 µM (inactive) in experiment [14]; 1.15 µM (inactive) in experiment [15]; > 100 µM (inactive) in experiment [16]; > 100 µM (inactive) in [17]; 88.9 µM (inactive) in [18].

`O=[N+]([O-])c1cc(-c2ccc([As](=O)(O)O)cc2)ccc1[As](=O)(O)O`: the GI50 in experiment [1], in [19], in experiment [2], in [3], in experiment [4] and in experiment [5] was > 100 µM (inactive) each time. Besides, the GI50 in [6], in experiment [7], in experiment [8], in experiment [9], in [10] and in experiment [12] was > 100 µM (inactive) throughout. Besides, the GI50 in experiment [13], in experiment [14], in experiment [15], in experiment [16] and in [18] was > 100 µM (inactive) in each case.
